Test results: patent US20070082880A1 (priority 2005, published 2007)

Molecular target: T1, human PKCθ full length enzyme (Homo sapiens, UniProt Q04759)
T1 construct: human PKCθ full length enzyme (Panvera Catalog No. P2996); purchased Panvera P2996
Experiment: PKCθ IMAP Assay
Assay type: biochemical
Conditions: average value when one or more samples were tested; ATP 6 uM, PKCθ 1 nM
Method in brief: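 IMAP fluorescence polarization after 20 min with binding beads measured phosphorylation of 100 nM 5FAM-peptide. Reactions held 1 nM full-length human PKCθ, 6 uM ATP, 5% DMSO and DTT-containing buffer, 25 min at room temperature. Compounds tested as 2:1 serial dilutions; controls lacked ATP or enzyme.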

T1 sequence (Q04759 whole entry): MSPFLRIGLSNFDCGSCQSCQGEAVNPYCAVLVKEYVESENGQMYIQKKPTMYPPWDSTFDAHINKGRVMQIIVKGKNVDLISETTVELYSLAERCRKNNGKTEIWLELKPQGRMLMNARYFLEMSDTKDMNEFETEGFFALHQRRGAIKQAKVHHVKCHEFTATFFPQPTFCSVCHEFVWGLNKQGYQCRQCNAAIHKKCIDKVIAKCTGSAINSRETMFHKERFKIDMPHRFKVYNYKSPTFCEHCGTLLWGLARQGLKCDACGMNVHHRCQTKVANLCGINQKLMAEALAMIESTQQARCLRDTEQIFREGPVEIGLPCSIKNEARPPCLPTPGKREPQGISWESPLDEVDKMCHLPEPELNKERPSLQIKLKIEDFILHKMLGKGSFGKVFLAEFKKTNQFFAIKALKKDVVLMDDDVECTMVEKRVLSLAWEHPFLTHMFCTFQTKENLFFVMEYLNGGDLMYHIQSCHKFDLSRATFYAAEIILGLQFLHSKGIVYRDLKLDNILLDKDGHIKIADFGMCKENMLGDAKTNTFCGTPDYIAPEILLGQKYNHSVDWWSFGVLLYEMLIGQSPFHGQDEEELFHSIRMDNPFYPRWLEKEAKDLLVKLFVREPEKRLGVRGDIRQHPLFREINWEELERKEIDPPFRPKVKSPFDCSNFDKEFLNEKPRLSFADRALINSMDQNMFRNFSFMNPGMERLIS

Row | SMILES | IC50
1 | Cc1c(Nc2c(C#N)cnc3sc(-c4ccc(S(=O)(=O)NCCN(C)C)cc4)cc23)ccc2[nH]ccc12 [Compound 345, 4-{5-cyano-4-[(4-methyl-1H-indol-5-yl)amino]thieno[2,3-b]pyridin-2-yl}-N-[2-(dimethylamino)ethyl]benzenesulfonamide] | 31 nM
2 | Cc1c(Nc2c(C#N)cnc3sc(C4CCN(Cc5ccccc5)C4)cc23)ccc2[nH]ccc12 (stereo not shown) [Compound 479, 2-(1-benzylpyrrolidin-3-yl)-4-[(4-methyl-1H-indol-5-yl)amino]thieno[2,3-b]pyridine-5-carbonitrile] | 1970 nM
3 | Cc1c(Nc2c(C#N)cnc3sc(-c4cccc(NS(C)(=O)=O)c4)c(C)c23)ccc2[nH]ccc12 [Compound 426, N-(3-{5-cyano-3-methyl-4-[(4-methyl-1H-indol-5-yl)amino]thieno[2,3-b]pyridin-2-yl}phenyl)methanesulfonamide] | 119 nM
4 | Cc1c(Nc2c(C#N)cnc3sc(-c4ccccc4)c(C)c23)ccc2[nH]ccc12 [Compound 424, 3-methyl-4-[(4-methyl-1H-indol-5-yl)amino]-2-phenylthieno[2,3-b]pyridine-5-carbonitrile] | 194 nM
5 | Cc1c(Nc2c(C#N)cnc3sc(-c4cnc(N5CCCC5)nc4)cc23)ccc2[nH]ccc12 [Compound 396, 4-[(4-methyl-1H-indol-5-yl)amino]-2-(2-pyrrolidin-1-ylpyrimidin-5-yl)thieno[2,3-b]pyridine-5-carbonitrile] | 156 nM
6 | Cc1c(Nc2c(C#N)cnc3sc(-c4cncc(CN(C)C)c4)cc23)ccc2[nH]ccc12 [Compound 462, 2-{5-[(dimethylamino)methyl]pyridin-3-yl}-4-[(4-methyl-1H-indol-5-yl)amino]thieno[2,3-b]pyridine-5-carbonitrile] | 83 nM
7 | Cc1c(Nc2c(C#N)cnc3scc(Br)c23)ccc2[nH]ccc12 [Compound 325, 3-bromo-4-[(4-methyl-1H-indol-5-yl)amino]thieno[2,3-b]pyridine-5-carbonitrile] | 15 nM
8 | CN(C)Cc1cccc(-c2cc3c(Nc4cnc5[nH]ccc5c4Cl)c(C#N)cnc3s2)c1 [Compound 498, 4-(4-chloro-1H-pyrrolo[2,3-b]pyridin-5-ylamino)-2-(3-((dimethylamino)methyl)phenyl)thieno[2,3-b]pyridine-5-carbonitrile] | 3 nM
9 | Cc1c(Nc2c(C#N)cnc3sc(-c4cc(CN(C)C)cc(OC(C)C)c4)cc23)ccc2[nH]ccc12 [Compound 466, 2-{3-[(dimethylamino)methyl]-5-isopropoxyphenyl}-4-[(4-methyl-1H-indol-5-yl)amino]thieno[2,3-b]pyridine-5-carbonitrile] | 64 nM
10 | Cc1c(Nc2c(C#N)cnc3sc(-c4ccc(CN5CCN(C)CC5)cc4)cc23)ccc2[nH]ccc12 [Compound 121, 4-[(4-methyl-1H-indol-5-yl)amino]-2-{4-[(4-methylpiperazin-1-yl)methyl]phenyl}thieno[2,3-b]pyridine-5-carbonitrile] | 38 nM
11 | N#Cc1cnc2sc(C3=CCNCC3)cc2c1Nc1cccc2[nH]ccc12 [Compound 473, 4-(1H-indol-4-ylamino)-2-(1,2,3,6-tetrahydropyridin-4-yl)thieno[2,3-b]pyridine-5-carbonitrile] | 143 nM
12 | Cc1c(Nc2c(C#N)cnc3sc(/C=C/C(=O)N4CCOCC4)cc23)ccc2[nH]ccc12 [Compound 309, 4-[(4-methyl-1H-indol-5-yl)amino]-2-[(1E)-3-morpholin-4-yl-3-oxoprop-1-en-1-yl]thieno[2,3-b]pyridine-5-carbonitrile] | 53 nM
13 | Cc1c(Nc2c(C#N)cnc3sc(/C=C/C(=O)N4CCC[C@H]4CN4CCCC4)cc23)ccc2[nH]ccc12 [Compound 299, 4-[(4-methyl-1H-indol-5-yl)amino]-2-{(1E)-3-oxo-3-[(2S)-2-(pyrrolidin-1-ylmethyl)pyrrolidin-1-yl]prop-1-en-1-yl}thieno[2,3-b]pyridine-5-carbonitrile] | 32 nM
14 | Cc1c(Nc2c(C#N)cnc3sc(C#CCCN4CCN(C)CC4)cc23)ccc2[nH]ccc12 [Compound 450, 4-[(4-methyl-1H-indol-5-yl)amino]-2-[4-(4-methylpiperazin-1-yl)but-1-yn-1-yl]thieno[2,3-b]pyridine-5-carbonitrile] | 126 nM

Other lines, results leading:

Row | IC50 | SMILES
15 | 1100 nM | CS(=O)(=O)c1cccc(-c2cc3c(Nc4ccc5[nH]ccc5c4)c(C#N)cnc3s2)c1 [Compound 239, 4-(1H-indol-5-ylamino)-2-[3-(methylsulfonyl)phenyl]thieno[2,3-b]pyridine-5-carbonitrile]
16 | 790 nM | CN(C)Cc1ccc(C#Cc2cc3c(Nc4ccc5[nH]ccc5c4)c(C#N)cnc3s2)nc1 [Compound 229, 2-({5-[(dimethylamino)methyl]pyridin-2-yl}ethynyl)-4-(1H-indol-5-ylamino) thieno[2,3-b]pyridine-5-carbonitrile]
17 | 527 nM | Cn1ccnc1-c1cc2c(Nc3ccc4[nH]ccc4c3)c(C#N)cnc2s1 [Compound 433, 4-(1H-indol-5-ylamino)-2-(1-methyl-1H-imidazol-2-yl)thieno[2,3-b]pyridine-5-carbonitrile]
18 | 300 nM | COCCN1CCN(Cc2cccc(-c3cc4c(Nc5ccc6[nH]ccc6c5)c(C#N)cnc4s3)c2)CC1 [Compound 178, 4-(1H-indol-5-ylamino)-2-(3-{[4-(2-methoxyethyl)piperazin-1-yl]methyl}phenyl)thieno[2,3-b]pyridine-5-carbonitrile]
19 | 120 nM | CN(C)C(=O)c1cccc(-c2cc3c(Nc4cccc5[nH]ccc45)c(C#N)cnc3s2)c1 [Compound 194, 3-[5-cyano-4-(1H-indol-4-ylamino)thieno[2,3-b]pyridine-2-yl]-N,N-dimethylbenzamide]
20 | 570 nM | CCCOc1ccccc1-c1cc2c(Nc3ccc4[nH]ccc4c3C)c(C#N)cnc2s1 [Compound 382, 4-[(4-methyl-1H-indol-5-yl)amino]-2-(2-propoxyphenyl)thieno[2,3-b]pyridine-5-carbonitrile]
21 | 104 nM | Cc1c(Nc2c(C#N)cnc3sc(/C=C/C(=O)NN(C)C)cc23)ccc2[nH]ccc12 [Compound 313, (2E)-3-{5-cyano-4-[(4-methyl-1H-indol-5-yl)amino]thieno[2,3-b]pyridin-2-yl}-N′,N′-dimethylacrylohydrazide]
22 | 4030 nM | N#Cc1cnc2sc(CN3CCN(c4ccccc4)CC3)cc2c1Nc1ccc2[nH]ccc2c1 [Compound 269, 4-(1H-indol-5-ylamino)-2-[(4-phenylpiperazin-1-yl)methyl]thieno[2,3-b]pyridine-5-carbonitrile]
23 | 75 nM | Cc1c(Nc2c(C#N)cnc3sc(-c4ccccc4CO)cc23)ccc2[nH]ccc12 [Compound 398, 2-[2-(hydroxymethyl)phenyl]-4-[(4-methyl-1H-indol-5-yl)amino]thieno[2,3-b]pyridine-5-carbonitrile]
24 | 22 nM | COc1ccccc1-c1cc2c(Nc3ccc4[nH]ccc4c3C)c(C#N)cnc2s1 [Compound 364, 2-(2-methoxyphenyl)-4-[(4-methyl-1H-indol-5-yl)amino]thieno[2,3-b]pyridine-5-carbonitrile]
25 | 155 nM | Cc1c(Nc2c(C#N)cnc3sc(C(=O)NCc4ccccc4)cc23)ccc2[nH]ccc12 [Compound 259, N-benzyl-5-cyano-4-[(4-methyl-1H-indol-5-yl)amino]thieno[2,3-b]pyridine-2-carboxamide]
26 | 17 nM | Cc1c(Nc2c(C#N)cnc3sc(-c4cccc(OC[C@H](O)CO)c4)cc23)ccc2[nH]ccc12 [Compound 484, 2-(3-{[(2R)-2,3-Dihydroxypropyl]-oxy}phenyl)-4-[(4-methyl-1H-indol-5-yl)amino]thieno[2,3-b]pyridine-5-carbonitrile]
27 | 25 nM | Cc1c(Nc2c(C#N)cnc3sc(C(=O)Nc4ccncc4)cc23)ccc2[nH]ccc12 [Compound 257, 5-cyano-4-[(4-methyl-1H-indol-5-yl)amino]-N-pyridin-4-ylthieno[2,3-b]pyridine-2-carboxamide]
28 | 14 nM | Cc1c(Nc2c(C#N)cnc3sc(-c4cccnc4)cc23)ccc2[nH]ccc12 [Compound 438, 4-[(4-methyl-1H-indol-5-yl)amino]-2-pyridin-3-ylthieno[2,3-b]pyridine-5-carbonitrile]
29 | 26 nM | CC(=O)c1cccc(-c2cc3c(Nc4ccc5[nH]ccc5c4C)c(C#N)cnc3s2)c1 [Compound 340, 2-(3-acetylphenyl)-4-[(4-methyl-1H-indol-5-yl)amino]thieno[2,3-b]pyridine-5-carbonitrile]
30 | 3700 nM | N#Cc1cnc2sc(/C=C/Cc3ccccc3)cc2c1Nc1ccc2[nH]ccc2c1 [Compound 409, 4-(1H-indol-5-ylamino)-2-[(1E)-3-phenylprop-1-en-1-yl]thieno[2,3-b]pyridine-5-carbonitrile]
31 | 70 nM | Cc1c(Nc2c(C#N)cnc3sc(-c4ccc(OC[C@H](O)CO)cc4)cc23)ccc2[nH]ccc12 [Compound 486, 2-(4-{[(2R)-2,3-dihydroxypropyl]-oxy}phenyl)-4-[(4-methyl-1H-indol-5-yl)amino]thieno[2,3-b]pyridine-5-carbonitrile]
32 | 1140 nM | COc1cccc(/C=C/c2cc3c(Nc4ccc5[nH]ccc5c4)c(C#N)cnc3s2)c1 [Compound 404, 4-(1H-indol-5-ylamino)-2-[(E)-2-(3-methoxyphenyl)vinyl]thieno[2,3-b]pyridine-5-carbonitrile]
33 | 10 nM | CONC(=O)c1ccc(-c2cc3c(Nc4ccc5[nH]ccc5c4C)c(C#N)cnc3s2)cc1 [Compound 358, 4-{5-cyano-4-[(4-methyl-1H-indol-5-yl)amino]thieno[2,3-b]pyridin-2-yl}-N-methoxybenzamide]
34 | 18 nM | CON(C)C(=O)c1cccc(-c2cc3c(Nc4ccc5[nH]ccc5c4C)c(C#N)cnc3s2)c1 [Compound 354, 3-{5-cyano-4-[(4-methyl-1H-indol-5-yl)amino]thieno[2,3-b]pyridin-2-yl}-N-methoxy-N-methylbenzamide]
